# Data: patent publication US11098040B2, “Compounds and methods of use” (Ferro Therapeutics, Inc., priority 2018, dated 2021)
# Read-outs that look alike come from different tables or passages of the source.
# Tests used:
# SJSA-1 = test: Cell proliferation (Alamar Blue) assay, SJSA-1 osteosarcoma, with/without ferrostatin; format: cell-based, human; conditions: Homo sapiens, read-out: IC50
# Protocol: Cell viability assay was performed to assess the potency of the compounds in human cancer cell lines 786-O (renal cell carcinoma) and SJSA-1 (osteosarcoma). Additional cell lines, such as those described above in Example 4 as well as various others, e.g., pancreatic cancer cell lines (Panc 02.13, BxPC-3, Panc 12, Panc 02.03, Panc 6.03, PSN-1, HPAC, and Capan-1) and prostate cancer cell lines (PC-3, DU145, 22Rv1, NCI-H660, BPH1, LNCaP, BM-1604, and MDA PCa 2b), were tested for select compounds as shown in Table 25.
# Cells (SJSA-1, 786-O and A431) were seeded (5000 cells/100 μL/well) in 96-well tissue culture plate and incubated at 37° C./5% CO2 for 16-24 hours. The cells were then treated with compounds (25 μL of 5×). The compound concentrations were 10-0.0005 μM prepared in 3-fold serial dilutions with final DMSO concentration of 1%. The plates were then incubated for 24 h at 37° C./5% CO2 in a moist environment. Then Alamar Blue™ reagent (final concentration 1×-12.5 μL) was added to each well and incubated for 1.5 hours at 37° C./5% CO2. The plates were read on fluorescence reader at 540 nm excitation and 590 nm emission wavelengths. The IC50 values were subsequently determined using a sigmoidal dose-response curve (variable slope) in GraphPad Prism® 5 software.
# Studies have shown that lipophilic antioxidants, such as ferrostatin, can rescue cells from GPX4 inhibition-induced ferroptosis. For instance, mesenchymal state GPX4-knockout cells can survive in the presence of ferrostatin, however, when the supply of ferrostatin is terminated, these cells undergo ferroptosis (see, e.g., Viswanathan et al., Nature 547:453-7, 2017). […] Accordingly, the ability of a molecule to induce ferroptotic cancer cell death, and that such ability is admonished by the addition of ferrostatin, is clear indication that the molecule is an GPX4 inhibitor.
# KP4 = test: Cell viability assay (CellTiter Glo), pancreatic ductal adenocarcinoma KP4; format: cell-based, human; conditions: Homo sapiens, KP-4, 96 h, pancreatic cancer cell line KP4, 96 hours, CellTiter Glo; read-out: IC50 μM KP4
# Procedure, shortened: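 Luminescent ATP readout (CellTiter Glo) after 96 h compound exposure, normalized to DMSO-treated cells as maximum. Compounds ran in duplicate, nine 3-fold steps from 30 μM down to 4.6 nM, final DMSO ≤0.25%; KP4 plated overnight at 1,000–10,000 cells/well. Outputs: IC50, relative IC50 or % top inhibition.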
# [1] = Whole blood stability, mouse; format: in vitro ADME
# Source text: (§1) The results of the assay on stability in blood and IC50 values for pancreatic cancer cell line KP4 are given below in Table 24.
# [2] = Whole blood stability, human; format: in vitro ADME
# Source text: as §1
Compound,"IC50 (SJSA-1; SJSA-1, Cell Line SJSA-1) [µM]",IC50 (SJSA-1; Cell Line SJSA-1) [µM],IC50 (KP4) [µM],Whole Blood Stability % Remaining at 37° C. Mouse ([1]; 0 min) [%],Whole Blood Stability % Remaining at 37° C. Mouse ([1]; 30 min) [%],Whole Blood Stability % Remaining at 37° C. Mouse ([1]; 60 min) [%],Whole Blood Stability % Remaining at 37° C. Human ([2]; 0 min) [%],Whole Blood Stability % Remaining at 37° C. Human ([2]; 30 min) [%],Whole Blood Stability % Remaining at 37° C. Human ([2]; 60 min) [%]
C[C@H]1Cc2c([nH]c3ccccc23)[C@H](c2ccc(N3CCN(C)CC3)cc2)N1C(=O)CCl [Example 104],0.147,,,,,,,,
C[C@H]1Cc2c([nH]c3ccccc23)[C@H](c2ccc(N3CCOCC3)cc2)N1C(=O)CF [Compound 227],,> 3,,,,,,,
C[C@H]1Cc2c([nH]c3ccccc23)C(c2ccc(N3CCOCC3)nc2)N1C(=O)CCl (stereo partly drawn) [Example 124],0.201,,,,,,,,
CC#CC(=O)N1[C@@H](c2ccc(N3CCOCC3)cc2)c2[nH]c3ccccc3c2C[C@@H]1C [Compound 224],> 3,,,,,,,,
COC(=O)c1ccc([C@H]2c3[nH]c4c(Br)cccc4c3C[C@H](C(=O)OC)N2C(=O)CCl)cc1 [Compound 97],,,< 0.01,100.0,0.0,0.0,100.0,69.6,44.1
COC(=O)[C@H]1Cc2c([nH]c3ccccc23)[C@H](c2ccc(OC(C)=O)cc2)N1C(=O)CCl [Compound 12],,,0.01 to 0.1,100.0,0.0,0.0,100.0,0.0,0.1
"C[C@H]1Cc2c([nH]c3ccccc23)[C@H](c2ccc(N3CCOCC3)cc2)N1C(=O)CCl [Compound 103, 2-chloro-1-((1S,3S)-3-methyl-1-(4-morpholinophenyl)-1,3,4,9-tetrahydro-2H-pyrido[3,4-b]indol-2-yl)ethan-1-one]",,,< 0.01,100.0,87.1,56.6,100.0,98.4,75.2
COC(=O)c1ccc([C@H]2c3[nH]c4cc(Br)ccc4c3C[C@H](C(=O)OC)N2C(=O)CCl)cc1 [Compound 96],,,< 0.01,100.0,0.0,0.0,100.0,29.1,10.9
CN(C)C(=O)c1ccc([C@H]2c3[nH]c4ccccc4c3C[C@H](C(=O)N(C)C)N2C(=O)CCl)cc1 [Compound 38],,,0.5 to 1,100.0,72.9,62.0,100.0,46.2,28.5
COC(=O)[C@H]1Cc2c([nH]c3ccccc23)[C@H](c2ccc(C(=O)NCCN3CCOCC3)cc2)N1C(=O)CCl [Compound 27],,,0.01 to 0.1,100.0,78.2,73.2,100.0,63.9,48.3
CC(=O)Nc1ccc([C@@H]2c3[nH]c4ccccc4c3C[C@H](C(=O)N(C)C)N2C(=O)CCl)cc1 [Compound 71a],,,> 1,100.0,76.5,43.8,100.0,54.9,25.7
CN(C)C(=O)[C@H]1Cc2c([nH]c3ccccc23)[C@H](c2ccc(S(C)(=O)=O)cc2)N1C(=O)CCl [Compound 59],,,0.1 to 0.5,100.0,97.9,65.6,100.0,48.9,51.5
COC(=O)c1ccc([C@H]2c3[nH]c4ccc(F)cc4c3C[C@H](C(=O)OC)N2C(=O)CCl)cc1 [Compound 91],,,< 0.01,100.0,0.0,0.0,100.0,65.8,47.2
CNC(=O)c1ccc([C@H]2c3[nH]c4ccccc4c3C[C@H](C(=O)OC)N2C(=O)CCl)cc1 [Compound 7],,,0.01 to 0.1,100.0,68.2,48.6,100.0,60.1,44.5
CN(C)C(=O)[C@H]1Cc2c([nH]c3ccccc23)[C@H](c2ccc(C(=O)NC[Si](C)(C)C)cc2)N1C(=O)CCl [Compound 66],,,0.01 to 0.1,100.0,69.8,26.8,100.0,79.1,45.8
COC(=O)[C@H]1Cc2c([nH]c3ccccc23)[C@H](c2ccc(C(=O)N3CCNCC3)cc2)N1C(=O)CCl [Compound 31],,,0.1 to 0.5,100.0,90.0,75.5,100.0,49.4,32.6
COC(=O)[C@H]1CC2c3ccccc3NC2[C@H](c2ccc(C(=O)OC(C)(C)C)cc2)N1C(=O)C(F)(F)Cl (stereo partly drawn) [Compound 34],,,> 1,100.0,75.6,80.6,100.0,104.9,113.4
CN(C)C(=O)[C@H]1Cc2c([nH]c3ccccc23)[C@H](c2ccc(S(=O)(=O)N3CCC(O)CC3)cc2)N1C(=O)CCl [Compound 49],,,> 1,100.0,82.5,52.5,100.0,43.0,13.7
C[C@H]1Cc2c([nH]c3ccccc23)[C@@H](c2ccc(C(=O)NC34CC(C3)C4)cc2)N1C(=O)CCl [Compound 111],,,0.5 to 1,100.0,79.2,87.7,100.0,96.1,68.1
COC(=O)c1ccc([C@@H]2c3sc4ccccc4c3C[C@H](C(=O)OC)N2C(=O)CCl)cc1 [Example 55d],,,0.1 to 0.5,100.0,0.0,0.0,100.0,60.8,41.2
CC(C)(C)OC(=O)[C@H]1Cc2c([nH]c3ccccc23)[C@H](c2ccc([N+](=O)[O-])cc2)N1C(=O)CCl [Compound 11],,,0.01 to 0.1,100.0,56.9,38.6,100.0,67.1,59.9
